Data as given in patent US20260125346A1, “Isoquinolinone Derivatives and 4H-Quinolizinone Derivatives and Pharmaceutical Compositions Thereof for the Treatment of Disease” (BeOne Medicines I GmbH, priority 2023, published 2026).

Columns and labels:
[1] = test system: PI3Kα H1047R mutated cell line T-47D; assay: Phospho-AKT (Ser473) Inhibition Assay (HTRF), T-47D; type: cell-based; conditions: for IC50: Homo sapiens, T47D, T-47D, 1 hour treatment, read-out: p-AKT Inhibition assay (S473) IC50 T-47D; for Selectivity: SK-BR-3/T-47D (p-AKT): p-AKT (S473) IC50 ratio
Description: Cell Culture Maintenance. The T-47D (ATCC, HTB-133) cell line was obtained from the American Type Culture Collection. Cells were maintained in RPMI1640 medium (Gibco, REF #22400105) supplemented with 10% Fetal Bovine Serum (Gibco, REF #10091148). Cultures were maintained in a humidified incubator at 37° C. under 5% CO2/95% air.
(§1) Phospho-AKT Inhibition Assay. HTRF Phospho-AKT (Ser473) detection kit (Cisbio, REF #64AKSPEH) was used in phosphor-AKT inhibition assay. For compound screening, PI3Kα H1047R mutated cell line T-47D and WT cell line SK-BR-3 cells were seeded at a density of 3×10^4 cells per well in 96 well plate (Costar, REF #3599) in 95 μL of assay medium (MEM medium (Gibco, REF #12561-056) with 1×NEAA (Gibco, REF #11140-050), 1 mM sodium pyruvate (Gibco, REF #11360-070), and 1 g/ml human insulin (Topscience, REF #T8221)), overnight. Compounds dissolved in 10 mM stock solutions in DMSO were serially diluted 1:3 in DMSO to generate an 11-point dilution series and plated using an INTEGRA ASSIST PLUS pipetting robot. A 20× intermediate compound dilution plate in RPMI1640 medium (200 M starting compound concentration in 2% DMSO) was then prepared. Five μL of intermediate serially diluted compounds were added to the cell plate to final concentrations ranging from […] to 0.1 nM in 0.1% DMSO. 0.1% DMSO alone was used to establish the maximum signal and GDC0077 at final concentration of 10 μM was used as a reference compound for minimum signal. After 1 hour treatment, removed medium and added 50 μL of supplemented lysis buffer (1×) immediately. Incubated for at least 30 minutes at room temperature under shaking. Transferred 16 μL of cell lysate from the 96-well cell-culture plate to a 384-white detection plate (PerkinElmer, Optiplate 384, 6007299). Added 4 μL of premixed antibody solutions prepared in the detection buffer. Incubated 4 hours at room temperature in dark. The plates were read on PHERAstar FSX Microplate reader (BMG LABTECH, Inc.) using standard HTRF settings.
(§2) Relative IC50 values were determined using luminescence units by calculating percent inhibition with respect to the in-plate “MIN” (GDC0077 reference control) and “MAX” (DMSO) controls. The data were analyzed using a 4-parameter nonlinear logistic equation (four-parameter logistic concentration-response curve): Y=bottom+[(top−bottom)/1+(X/IC50) slope] • where Y=% inhibition, X=concentration of inhibitor, bottom=minimum value of y attained by curve-fit, top=maximum value of y attained by curve-fit and slope=steepness of curve at the IC50.

[2] = test system: WT cell line SK-BR-3; assay: Phospho-AKT (Ser473) Inhibition Assay (HTRF), SK-BR-3; type: cell-based; conditions: Homo sapiens; SK-BR-3, 1 hour treatment; read-out: p-AKT Inhibition assay (S473) IC50 SK-BR-3
Description: The SK-BR-3 (ATCC, HTB-30) cell line was obtained from the American Type Culture Collection. Cells were maintained in McCoy' 5A medium (Gibco, REF #16600108) supplemented with 10% Fetal Bovine Serum. Cultures were maintained in a humidified incubator at 37° C. under 5% CO2/95% air.
as §1, §2

IC50 [1] [nM] | IC50 [2] [nM] | SMILES | Selectivity: SK-BR-3/T-47D (p-AKT) [1]
57.3 | 4770 | Cc1cc(C(C)Nc2ccccc2C(=O)O)c2cc(-c3ccc(F)cc3)n(CC#N)c(=O)c2c1 (stereo not drawn) [Example 63, 2-((1-(2-(cyanomethyl)-3-(4-fluorophenyl)-7-methyl-1-oxo-1,2-dihydroisoquinolin-5-yl)ethyl)amino)benzoic acid] | 83.3
123 | 5340 | Cc1cc(C(C)Nc2ccccc2C(=O)O)c2cc(C3=CCN(c4ccccc4)C3)n(C)c(=O)c2c1 (stereo not drawn) [Example 76, 2-((1-(2,7-dimethyl-1-oxo-3-(1-phenyl-2,5-dihydro-1H-pyrrol-3-yl)-1,2-dihydroisoquinolin-5-yl)ethyl)amino)benzoic acid] | 43.5
432 | 2840 | Cc1cc(C(C)Nc2ccccc2C(=O)O)c2cc(-c3cnn(CC45CC6C[C@H](C4)C[C@H](C6)C5)c3C)n(C)c(=O)c2c1 (stereo partly drawn) [Example 87, 2-((1-(3-(1-(((3S,5S)-adamantan-1-yl)methyl)-5-methyl-1H-pyrazol-4-yl)-2,7-dimethyl-1-oxo-1,2-dihydroisoquinolin-5-yl)ethyl)amino)benzoic acid] | 6.6
299 | > 10000 | CC(Nc1ccccc1C(=O)O)c1cccn2c(=O)cc(-c3ccccc3)cc12 (stereo not drawn) [Example 25, 2-((1-(4-oxo-2-phenyl-4H-quinolizin-9-yl)ethyl)amino)benzoic acid] | >33.4
167 | 6450 | Cc1cc(C(C)Nc2ccccc2C(=O)O)c2cc(-c3ccc(C(C)(C)O)cc3)n(C)c(=O)c2c1 (stereo not drawn) [Example 51, 2-((1-(3-(4-(2-hydroxypropan-2-yl)phenyl)-2,7-dimethyl-1-oxo-1,2-dihydroisoquinolin-5-yl)ethyl)amino)benzoic acid] | 38.7
63.2 | 2060 | COc1ccc(-c2cc3c(C(C)Nc4ccccc4C(=O)O)cc(C)cc3c(=O)n2C)cc1 (stereo not drawn) [Example 14, 2-((1-(3-(4-methoxyphenyl)-2,7-dimethyl-1-oxo-1,2-dihydroisoquinolin-5-yl)ethyl)amino)benzoic acid] | 32.5
57.2 | > 10000 | Cc1cc(C(C)Nc2cc3ccsc3cc2C(=O)O)c2cc(-c3ccccc3)n(C)c(=O)c2c1 (stereo not drawn) [Example 47, 5-((1-(2,7-dimethyl-1-oxo-3-phenyl-1,2-dihydroisoquinolin-5-yl)ethyl)amino)benzo[b]thiophene-6-carboxylic acid] | >175
3280 | > 10000 | Cc1cc(C(C)Nc2ccccc2C(=O)O)c2cc(C#Cc3cnn(-c4ccccc4)c3)n(C)c(=O)c2c1 (stereo not drawn) [Example 94, 2-((1-(2,7-dimethyl-1-oxo-3-((1-phenyl-1H-pyrazol-4-yl)ethynyl)-1,2-dihydroisoquinolin-5-yl)ethyl)amino)benzoic acid] | >3.05
632 | 3790 | Cc1cc(C(C)Nc2c(C(=O)O)sc3ccccc23)c2cc(-c3ccccc3)n(C)c(=O)c2c1 (stereo not drawn) [Example 48, 3-((1-(2,7-dimethyl-1-oxo-3-phenyl-1,2-dihydroisoquinolin-5-yl)ethyl)amino)benzo[b]thiophene-2-carboxylic acid] | 6.0
2800 | > 10000 | Cc1cc(C(C)Nc2ccccc2C(=O)O)c2cc(-c3cnc(C(C)(C)O)nc3)n(C)c(=O)c2c1 (stereo not drawn) [Example 66, 2-((1-(3-(2-(2-hydroxypropan-2-yl)pyrimidin-5-yl)-2,7-dimethyl-1-oxo-1,2-dihydroisoquinolin-5-yl)ethyl)amino)benzoic acid] | >3.57
408 | 1640 | Cc1cc(C(C)Nc2ccccc2C(=O)O)c2cc(C#Cc3ccccc3)n(C)c(=O)c2c1 (stereo not drawn) [Example 43, 2-((1-(2,7-dimethyl-1-oxo-3-(phenylethynyl)-1,2-dihydroisoquinolin-5-yl)ethyl)amino)benzoic acid] | 4.0

The remaining lines, values behind:

SMILES | IC50 [1] [nM] | IC50 [2] [nM] | Selectivity: SK-BR-3/T-47D (p-AKT) [1]
Cc1cc(C(C)Nc2ccccc2C(=O)O)c2cc(-c3ccccc3C)n(C)c(=O)c2c1 (stereo not drawn) [Example 2, 2-((1-(2,7-dimethyl-1-oxo-3-(o-tolyl)-1,2-dihydroisoquinolin-5-yl)ethyl)amino)benzoic acid] | 66.3 | 2850 | 43.0
Cc1cc([C@@H](C)Nc2ccccc2C(=O)O)c2cc(-c3ccc(F)cc3)n(C)c(=O)c2c1 [Example 34, (R)-2-((1-(3-(4-fluorophenyl)-2,7-dimethyl-1-oxo-1,2-dihydroisoquinolin-5-yl)ethyl)amino)benzoic acid] | 20.2 | > 10000 | >494
Cc1cc(C(C)Nc2ccccc2C(=O)O)c2cc(-c3ccc4nn(C)cc4n3)n(C)c(=O)c2c1 (stereo not drawn) [Example 39, 2-((1-(2,7-dimethyl-3-(2-methyl-2H-pyrazolo[4,3-b]pyridin-5-yl)-1-oxo-1,2-dihydroisoquinolin-5-yl)ethyl)amino)benzoic acid] | 1110 | 6170 | 5.6
Cc1cc(C(C)Nc2ccccc2C(=O)O)c2cc(-c3cncnc3)n(C)c(=O)c2c1 (stereo not drawn) [Example 61, 2-((1-(2,7-dimethyl-1-oxo-3-(pyrimidin-5-yl)-1,2-dihydroisoquinolin-5-yl)ethyl)amino)benzoic acid] | 1400 | > 10000 | >7.15
Cc1cc(C(C)Nc2ccccc2C(=O)O)c2cc(-c3ccc(-c4cnn(C)c4)cc3)n(C)c(=O)c2c1 (stereo not drawn) [Example 23, 2-((1-(2,7-dimethyl-3-(4-(1-methyl-1H-pyrazol-4-yl)phenyl)-1-oxo-1,2-dihydroisoquinolin-5-yl)ethyl)amino)benzoic acid] | 103 | 1700 | 16.6
COC1(c2ccc(-c3cc4c(C(C)Nc5ccccc5C(=O)O)cc(C)cc4c(=O)n3C)cc2)CCOCC1 (stereo not drawn) [Example 74, 2-((1-(3-(4-(4-methoxytetrahydro-2H-pyran-4-yl)phenyl)-2,7-dimethyl-1-oxo-1,2-dihydroisoquinolin-5-yl)ethyl)amino)benzoic acid] | 307 | 4390 | 14.3
Cc1cc(C(C)Nc2ccccc2C(=O)O)c2cc(-c3ccc(N4CCC(C)(O)CC4)nc3)n(C)c(=O)c2c1 (stereo not drawn) [Example 72, 2-((1-(3-(6-(4-hydroxy-4-methylpiperidin-1-yl)pyridin-3-yl)-2,7-dimethyl-1-oxo-1,2-dihydroisoquinolin-5-yl)ethyl)amino)benzoic acid] | 633 | > 10000 | >15.79
CC(Nc1ccccc1C(=O)O)c1cccc2c(=O)n(C)c(-c3ccccc3)cc12 (stereo not drawn) [Example 20, 2-((1-(2-methyl-1-oxo-3-phenyl-1,2-dihydroisoquinolin-5-yl)ethyl)amino)benzoic acid] | 24.1 | > 10000 | >416
Cc1cc(C(C)Nc2ccccc2C(=O)O)c2cc(-c3ccc(F)cc3)n(-c3nccs3)c(=O)c2c1 (stereo not drawn) [Example 71, 2-((1-(3-(4-fluorophenyl)-7-methyl-1-oxo-2-(thiazol-2-yl)-1,2-dihydroisoquinolin-5-yl)ethyl)amino)benzoic acid] | 102 | 5590 | 55.0
Cc1cc(C(C)Nc2ccccc2C(=O)O)c2cc(-c3ccc(F)cc3)n(C3CCOC3)c(=O)c2c1 (stereo not drawn) [Example 69, 2-((1-(3-(4-fluorophenyl)-7-methyl-1-oxo-2-(tetrahydrofuran-3-yl)-1,2-dihydroisoquinolin-5-yl)ethyl)amino)benzoic acid] | 103 | > 10000 | >97
